From patent US20120015961A1, “ISOTHIOUREA DERIVATIVES OR ISOUREA DERIVATIVES HAVING BACE1 INHIBITORY ACTIVITY” (SHIONOGI & CO., LTD., priority 2009, published 2012)

biological target: T1, Recombinant human BACE1 (Homo sapiens, UniProt P56817); assay: Assay of BACE1 inhibiting activity; format: biochemical; conditions: 50% inhibitory concentration against enzymatic activity, pH 5.0, 30° C., 3 hours
T1 construct: purchased R&D Systems
Experimental: 48.5 μL of substrate peptide solution (Biotin-XSEVNLDAEFRHDSGC-Eu: Xεε-amino-n-capronic acid, Eu=Europium cryptate) was added to each well of 96-hole half-area plate (a black plate: Costar Corporation), and after addition of 0.5 μl of the test compound (dissolved in […]) and 1 μl of Recombinant human BACE1 (R&D Systems), the reaction mixture was incubated at 30° C. for 3 hours. The substrate peptide was synthesized by reacting Cryptate TBPCOOH mono SMP (CIS bio international) with Biotin-XSEVNLDAEFRHDSGC (Peptide Institute, Inc.). The final concentrations of the substrate peptide and Recombinant human BACE1 were adjusted to 18 nM and 7.4 nM respectively, and the reaction was performed in sodium acetate buffer (50 mM sodium acetate, pH 5.0, 0.008% Triton X-100). After the completion of reaction, 50 μl of 8.0 μg/ml Streptavidin-XL665 (CIS bio international) dissolved in phosphate buffer (150 mM K2HPO4—KH2PO4, pH 7.0, 0.008% Triton X-100, 0.8 M KF) was added to each well and left stand at 30° C. for an hour. Then, fluorescence intensity was measured (excitation wavelength: 320 nm, measuring wavelength: 620 nm and 665 nm) using Wallac 1420 multilabel counter (Perkin Elmer life sciences). Enzymatic activity was determined from counting ratio of each wavelength (10,000×Count 665/Count 620) and 50% inhibitory concentration against the enzymatic activity was calculated.

T1 sequence (P56817 46-501): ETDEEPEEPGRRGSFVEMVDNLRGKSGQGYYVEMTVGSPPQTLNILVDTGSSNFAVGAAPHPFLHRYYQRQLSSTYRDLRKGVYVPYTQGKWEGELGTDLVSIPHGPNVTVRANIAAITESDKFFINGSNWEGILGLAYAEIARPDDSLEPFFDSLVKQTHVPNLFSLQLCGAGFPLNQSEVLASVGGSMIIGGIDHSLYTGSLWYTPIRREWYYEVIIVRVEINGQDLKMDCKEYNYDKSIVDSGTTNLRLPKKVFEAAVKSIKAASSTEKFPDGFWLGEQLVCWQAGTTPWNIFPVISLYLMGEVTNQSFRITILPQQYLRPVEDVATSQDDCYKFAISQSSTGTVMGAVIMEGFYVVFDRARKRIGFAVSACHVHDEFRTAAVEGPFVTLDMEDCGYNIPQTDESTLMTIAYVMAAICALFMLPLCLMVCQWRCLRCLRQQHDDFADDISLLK

SMILES	IC50 [nM]
CC#CCOc1cnc(C(=O)Nc2ccc(Oc3ccccc3)c(C/N=C(/N)SC)c2)cn1 [Compound 68]	≤ 1000
CO/C(N)=N\C(c1cccc(NC(=O)c2ccc(C#N)cn2)c1)c1ccc(OC)c(F)c1 (centres unmarked) [Compound 55]	≤ 1000
CC#CCOc1cnc(C(=O)Nc2ccc(F)c(C/N=C(/N)SC)c2)cn1 [Compound 16]	≤ 1000
CO/C(N)=N/C(c1cccc(F)c1)c1cccc(NC(=O)c2ccc(C#N)cn2)c1 (centres unmarked) [Compound 51]	≤ 1000
CO/C(N)=N\C(c1ccc(OC)cc1)c1cccc(NC(=O)c2cnc(OC)cn2)c1 (centres unmarked) [Compound 58]	≤ 1000
CC#CCOc1cnc(C(=O)Nc2cccc(C(/N=C(/N)SC)c3ccc(OC)cc3)c2)cn1 (centres unmarked) [Compound 21]	≤ 1000
CS/C(N)=N\c1c(C)ccc2ccc(NC(=O)c3ccc(C#N)cn3)cc12 [Compound 79]	≤ 1000
CO/C(N)=N/C(c1cccc(NC(=O)c2ccc(C#N)cn2)c1)c1cccc(OC)c1 (centres unmarked) [Compound 53]	≤ 1000
CC#CCOc1cnc(C(=O)Nc2cccc(C/N=C(/N)SCCCO)c2)cn1 [Compound 17]	≤ 1000
CO/C(N)=N\c1cccc2ccc(NC(=O)c3ccc(C#N)cn3)cc12 [Compound 75]	≤ 1000
CC#CCOc1cnc(C(=O)Nc2cccc(C3(/N=C(/N)SC)CC3)c2)cn1 [Compound 14]	≤ 1000
CO/C(N)=N\C(c1ccc(OC)cc1)c1cccc(NC(=O)c2ccc(C#N)cn2)c1 (centres unmarked) [Compound 57]	≤ 1000
CC#CCOc1cnc(C(=O)Nc2cccc(C/N=C(/N)SCc3cccnc3)c2)cn1 [Compound 10]	≤ 1000
CO/C(N)=N\[C@H](c1ccc(F)cc1)c1cccc(NC(=O)c2ccc(C#N)cn2)c1 [Compound 52]	≤ 1000
CO/C(N)=N\C(c1cccc(NC(=O)c2ccc(C#N)cn2)c1)c1ccc2c(c1)CCO2 (centres unmarked) [Compound 54]	≤ 1000
CC#CCOc1cnc(C(=O)Nc2ccc(Oc3cccc(OC)c3)c(C/N=C(/N)SC)c2)cn1 [Compound 70]	≤ 1000

Results, then the compound that gave them:

IC50 [nM]	SMILES
≤ 1000	CO/C(N)=N\C(c1ccc(Cl)cc1)c1cccc(NC(=O)c2ccc(C#N)cn2)c1 (centres unmarked) [Compound 91]
≤ 1000	COC(=N)NC(c1ccc(OCc2ccccc2)cc1)c1cccc(NC(=O)c2ccc(C#N)cn2)c1 (centres unmarked) [Compound 96]
≤ 1000	CO/C(N)=N/C(C)(c1ccc(OC)cc1)c1cccc(NC(=O)c2ccc(C#N)cn2)c1 (centres unmarked) [Compound 98]
≤ 1000	[2H]C([2H])([2H])Oc1ccc(C(NC(=N)OC)c2cccc(NC(=O)c3ccc(C#N)cn3)c2)cc1 (centres unmarked) [Compound 102]
≤ 1000	CO/C(N)=N\C(c1ccc(Cl)cc1)c1cccc(NC(=O)c2cnc(OC)cn2)c1 (centres unmarked) [Compound 92]
≤ 1000	[2H]C([2H])([2H])Oc1cnc(C(=O)Nc2cccc(C3(/N=C(/N)OC)CC3)c2)cn1 [Compound 97]
≤ 1000	CO/C(N)=N/C(C)(c1ccc(F)cc1)c1cccc(NC(=O)c2ccc(C#N)cn2)c1 (single isomer, unassigned) [Compound 101]
≤ 1000	COC(=N)NC(c1ccc(OC(C)C)cc1)c1cccc(NC(=O)c2ccc(C#N)cn2)c1 (centres unmarked) [Compound 95]
≤ 1000	CO/C(N)=N/C(C)(c1ccc(F)cc1)c1cccc(NC(=O)c2ccc(C#N)cn2)c1 (centres unmarked) [Compound 88]
≤ 1000	CO/C(N)=N\C(c1ccc(Cl)cc1)c1cccc(NC(=O)c2ccc(Cl)cn2)c1 (centres unmarked) [Compound 93]
32	CC#CCOc1cnc(C(=O)Nc2cccc(C(/N=C(/N)OC)c3ccc(Cl)cc3)c2)cn1 (centres unmarked) [Compound 94]

system: Neuroblastoma SH-SY5Y cells (SH/APPwt) with human wild-type β-APP excessively expressed; assay: Measurement of β-amyloid (Aβ) production inhibitory effect in cell; format: cell-based; conditions: Homo sapiens, SH-SY5Y, 24 h, amount needed to inhibit Aβ production by 50%, 24 hours incubation, Amyloid β1-40 HTRF
Experimental: Neuroblastoma SH-SY5Y cells (SH/APPwt) with human wild-type β-APP excessively expressed therein were prepared at 8×10^5 cells/mL, and 150 μl portions thereof were inoculated into each well of a 96-well culture plate (Falcon). The cells were cultured for 2 hours at 37° C. in a 5% gaseous carbon dioxide incubator. Then, a solution which had been preliminarily prepared by adding and suspending the test compound (DMSO (dimethyl sulfoxide) solution) so as to be 2 μl/50 μl medium was added to the cell sap. Namely, the final DMSO concentration was 1%, and the amount of the cell culture was 200 μl. After the incubation was performed for 24 hours from the addition of the test compound, 100 μl of the culture supernatant was collected from each fraction. The amount of the Aβ in each fraction was measured.
The […] was measured as follows. 10 μl of a homogeneous time resolved fluorescence (HTRF) measurement reagent (Amyloid β1-40 peptide; IBA Molecular Holding, S.A.) and 10 μl of the culture supernatant were put into a 384-well half area microplate (black microplate, Costar) and mixed with each other, and then left standing overnight at 4° C. while the light was shielded. Then, the fluorescence intensity (excitation wavelength: 337 nm, measurement wavelength: 620 nm and 665 nm) was measured with a Wallac 1420 multilabel counter (Perkin Elmer life sciences). The Aβ amount was determined from the count rate at each measurement wavelength (10000×Count 665/Count 620), and the amount needed to inhibit Aβ production by 50% (IC50) was calculated from at least six different dosages.

SMILES	IC50 [nM]
CC#CCOc1cnc(C(=O)Nc2ccc(Oc3ccccc3)c(C/N=C(/N)SC)c2)cn1 [Compound 68]	≤ 1000
CO/C(N)=N\Cc1cc(NC(=O)c2cnc(OC)cn2)ccc1F [Compound 43]	≤ 1000
CO/C(N)=N\C(c1cccc(NC(=O)c2ccc(C#N)cn2)c1)c1ccc(OC)c(F)c1 (centres unmarked) [Compound 55]	≤ 1000
CC#CCOc1cnc(C(=O)Nc2ccc(F)c(C/N=C(/N)SC)c2)cn1 [Compound 16]	≤ 1000
CO/C(N)=N/C(c1cccc(F)c1)c1cccc(NC(=O)c2ccc(C#N)cn2)c1 (centres unmarked) [Compound 51]	≤ 1000
CO/C(N)=N/C(C)c1cccc(NC(=O)c2ccc(C#N)cn2)c1 (centres unmarked) [Compound 82]	≤ 1000
CO/C(N)=N\C(c1ccc(OC)cc1)c1cccc(NC(=O)c2cnc(OC)cn2)c1 (centres unmarked) [Compound 58]	18
COc1ccc(C(/N=C(/N)SC)c2cccc(NC(=O)c3ncc(Cl)cc3Cl)c2)cc1 (centres unmarked) [Compound 22]	≤ 1000
CC#CCOc1cnc(C(=O)Nc2cccc(C(/N=C(/N)SC)c3ccc(OC)cc3)c2)cn1 (centres unmarked) [Compound 21]	≤ 1000
CS/C(N)=N\c1c(C)ccc2ccc(NC(=O)c3ccc(C#N)cn3)cc12 [Compound 79]	≤ 1000
CO/C(N)=N/C(c1cccc(NC(=O)c2ccc(C#N)cn2)c1)c1cccc(OC)c1 (centres unmarked) [Compound 53]	≤ 1000
CO/C(N)=N/C(C)c1cccc(NC(=O)c2cnc(OC)cn2)c1 (centres unmarked) [Compound 83]	≤ 1000
CC#CCOc1cnc(C(=O)Nc2cccc(C/N=C(/N)SCCCO)c2)cn1 [Compound 17]	≤ 1000
CO/C(N)=N\c1cccc2ccc(NC(=O)c3ccc(C#N)cn3)cc12 [Compound 75]	≤ 1000
COCCO/C(N)=N\Cc1cccc(NC(=O)c2ccc(C#N)cn2)c1 [Compound 35]	≤ 1000
CC#CCOc1cnc(C(=O)Nc2cccc(C3(/N=C(/N)SC)CC3)c2)cn1 [Compound 14]	≤ 1000

SMILES	IC50 [nM]
CS/C(N)=N\C(C)c1cc(NC(=O)c2ccc(C#N)cn2)ccc1F (centres unmarked) [Compound 27]	≤ 1000
CC#CCOc1cnc(C(=O)Nc2cccc(C(C)(C)/N=C(/N)SC)c2)cn1 [Compound 64]	≤ 1000
CCCO/C(N)=N\Cc1cccc(NC(=O)c2ccc(C#N)cn2)c1 [Compound 34]	≤ 1000
COc1ccc(C(/N=C(/N)SC)c2cccc(NC(=O)c3ccc(C#N)cn3)c2)cc1 (centres unmarked) [Compound 23]	≤ 1000
CO/C(N)=N\C(c1ccc(OC)cc1)c1cccc(NC(=O)c2ccc(C#N)cn2)c1 (centres unmarked) [Compound 57]	≤ 1000
CC#CCOc1cnc(C(=O)Nc2cccc(C/N=C(/N)SCc3cccnc3)c2)cn1 [Compound 10]	≤ 1000
CO/C(N)=N/Cc1cccc(NC(=O)c2ccc(C#N)cn2)c1 [Compound 33]	≤ 1000
COCCCO/C(N)=N/Cc1cccc(NC(=O)c2ccc(C#N)cn2)c1 [Compound 37]	≤ 1000
CO/C(N)=N\[C@H](c1ccc(F)cc1)c1cccc(NC(=O)c2ccc(C#N)cn2)c1 [Compound 52]	≤ 1000
CO/C(N)=N\C(c1cccc(NC(=O)c2ccc(C#N)cn2)c1)c1ccc2c(c1)CCO2 (centres unmarked) [Compound 54]	≤ 1000
COc1ccc(C(/N=C(/N)SC)c2cccc(NC(=O)c3cnc(OC)cn3)c2)cc1 (centres unmarked) [Compound 24]	≤ 1000
CC#CCOc1cnc(C(=O)Nc2ccc(Oc3cccc(OC)c3)c(C/N=C(/N)SC)c2)cn1 [Compound 70]	≤ 1000
COc1cnc(C(=O)Nc2ccc(F)c(C(C)/N=C(/N)SC)c2)cn1 (centres unmarked) [Compound 26]	≤ 1000
CO/C(N)=N\Cc1cc(NC(=O)c2ccc(C#N)cn2)ccc1F [Compound 42]	≤ 1000
CO/C(N)=N\C1(c2cc(NC(=O)c3ccc(C#N)cn3)ccc2F)CC1 [Compound 46]	≤ 1000
CO/C(N)=N\C1(c2cc(NC(=O)c3cnc(OC)cn3)ccc2F)CC1 [Compound 47]	≤ 1000

Now from value to compound:

IC50 [nM]	SMILES
≤ 1000	CO/C(N)=N/C(C)c1cc(NC(=O)c2cnc(OC)cn2)ccc1F (centres unmarked) [Compound 85]
≤ 1000	CO/C(N)=N\C(c1ccc(Cl)cc1)c1cccc(NC(=O)c2ccc(C#N)cn2)c1 (centres unmarked) [Compound 91]
≤ 1000	COC(=N)NC(c1ccc(OCc2ccccc2)cc1)c1cccc(NC(=O)c2ccc(C#N)cn2)c1 (centres unmarked) [Compound 96]
≤ 1000	CO/C(N)=N/C(C)(c1ccc(OC)cc1)c1cccc(NC(=O)c2ccc(C#N)cn2)c1 (centres unmarked) [Compound 98]
≤ 1000	[2H]C([2H])([2H])Oc1ccc(C(NC(=N)OC)c2cccc(NC(=O)c3ccc(C#N)cn3)c2)cc1 (centres unmarked) [Compound 102]
≤ 1000	CO/C(N)=N\C(c1ccc(Cl)cc1)c1cccc(NC(=O)c2cnc(OC)cn2)c1 (centres unmarked) [Compound 92]
≤ 1000	[2H]C([2H])([2H])Oc1cnc(C(=O)Nc2cccc(C3(/N=C(/N)OC)CC3)c2)cn1 [Compound 97]
≤ 1000	CO/C(N)=N/C(C)c1cc(NC(=O)c2ccc(C#N)cn2)ccc1F (centres unmarked) [Compound 84]
≤ 1000	CO/C(N)=N\C(c1ccc(Cl)cc1)c1cccc(NC(=O)c2cnc(C)cn2)c1 (centres unmarked) [Compound 90]
≤ 1000	CO/C(N)=N/C(C)(c1ccc(F)cc1)c1cccc(NC(=O)c2ccc(C#N)cn2)c1 (single isomer, unassigned) [Compound 101]
≤ 1000	CO/C(N)=N\C(c1cccc(NC(=O)c2ccc(C#N)cn2)c1)C(F)(F)F (centres unmarked) [Compound 99]
≤ 1000	COC(=N)NC(c1ccc(OC(C)C)cc1)c1cccc(NC(=O)c2ccc(C#N)cn2)c1 (centres unmarked) [Compound 95]
≤ 1000	CO/C(N)=N\C(c1ccc(Cl)cc1)c1cccc(NC(=O)c2ccc(Cl)cn2)c1 (centres unmarked) [Compound 93]
≤ 1000	CC#CCOc1cnc(C(=O)Nc2cccc(C(/N=C(/N)OC)c3ccc(Cl)cc3)c2)cn1 (centres unmarked) [Compound 94]

same assay, conditions: amount needed to inhibit Aβ production by 50%, 24 hours incubation, Amyloid β1-40 HTRF

IC50 [nM]	SMILES
24	CO/C(N)=N/C(C)(c1ccc(F)cc1)c1cccc(NC(=O)c2ccc(C#N)cn2)c1 (centres unmarked) [Compound 88]
